ChEMBL document CHEMBL1201862, “PubChem BioAssay data set” (2004)
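Results reflect a 48-hour exposure of cells in 96-well plates to compound at five concentrations. The concentration for 50% growth inhibition is given as GI50.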 Activity calls are given as the source filed them. Rule as the data show it: active = GI50 up to about 1.1 µM and inactive = higher.

Assays:
Assay in all cases: NCI tumour cell line growth inhibition, 48 h
[1] = test system: MOLT-4
[2] = test system: SNB-78
[3] = test system: HL-60
[4] = test system: HT-29
[5] = test system: OVCAR-3
[6] = test system: SF-295
[7] = test system: LOX IMVI
[8] = test system: DMS-273
[9] = test system: NCI-H226
[10] = test system: SR
[11] = test system: RXF 393
[12] = test system: SNB-19
[13] = test system: UACC-62
[14] = test system: KM-20L2
[15] = test system: SF-268
[16] = test system: SW-620
[17] = test system: TK-10

Measured: GI50

N#C/N=N/c1cc(Cl)c(/N=N/C#N)cc1Cl
inactive: [1] 40.9 µM | [2] > 100 µM | [3] 34.7 µM | [4] > 100 µM | [5] > 100 µM | [6] > 100 µM | [7] 38.6 µM | [8] > 100 µM | [9] > 100 µM | [10] 34.8 µM | [11] > 100 µM | [12] > 100 µM | [13] > 100 µM | [14] > 100 µM | [15] > 100 µM | [16] 35.3 µM | [17] > 100 µM

CN(C)CCNC(=O)c1cccc2ccc(-c3ccc(F)cc3)nc12
inactive: [1] 1.94 µM | [2] 8.85 µM | [3] 2.29 µM | [4] 3.3 µM | [5] 6.89 µM | [6] 5.7 µM | [7] 3.32 µM | [8] 2.82 µM | [9] 3.53 µM | [11] 7.38 µM | [12] 6.87 µM | [13] 3.95 µM | [14] 4.22 µM | [15] 5.27 µM | [16] 3.08 µM

O=C(NN1C(=O)CS(=O)(=O)C1c1ccc(Cl)c(Cl)c1)c1ccncc1 (stereo unspecified)
inactive: [1] > 40.3 µM | [2] > 93.1 µM | [3] > 43 µM | [4] > 71.3 µM | [5] > 90.8 µM | [6] > 87.5 µM | [7] > 95.9 µM | [8] > 31.6 µM | [9] > 100 µM | [11] > 69 µM | [12] > 92.3 µM | [13] > 100 µM | [14] > 91.4 µM | [15] > 81.5 µM | [16] > 100 µM

O=[N+]([O-])c1ccc2[nH]c3c(-c4ccccc4)nccc3c2c1
inactive: [1] 2.31 µM | [2] 31 µM | [3] 6 µM | [4] 10.7 µM | [5] 14.3 µM | [6] 18 µM | [7] 16.9 µM | [8] 11.9 µM | [9] 9.75 µM | [11] 25.4 µM | [12] 15.3 µM | [13] 14.8 µM | [14] 27.6 µM | [15] 25 µM | [16] 36 µM

CC(=O)Nc1ccc(C2[C@H]3C(=O)N(c4ccc(Cc5ccc(N6C(=O)[C@@H]7ON(c8ccccc8)C(c8ccc(NC(C)=O)cc8)[C@@H]7C6=O)cc5)cc4)C(=O)[C@H]3ON2c2ccccc2)cc1 (stereo partly specified)
inactive: [1] > 100 µM | [2] > 100 µM | [3] > 100 µM | [4] > 100 µM | [5] > 100 µM | [6] > 100 µM | [7] > 100 µM | [8] > 100 µM | [9] > 100 µM | [10] > 100 µM | [11] > 100 µM | [12] > 100 µM | [13] 70.8 µM | [14] > 100 µM | [15] > 100 µM | [16] > 100 µM | [17] > 100 µM

O=c1[nH]c(=O)n(C2CC(O)C(CO)O2)cc1C(OCC(F)(F)F)OCC(F)(F)F (stereo unspecified)
inactive: [1] > 100 µM | [2] > 100 µM | [3] > 100 µM | [4] > 100 µM | [5] > 100 µM | [6] > 100 µM | [7] > 100 µM | [8] > 100 µM | [11] > 100 µM | [12] > 100 µM | [13] > 100 µM | [14] > 100 µM | [15] > 100 µM | [16] > 100 µM | [17] > 100 µM

C[Si](C)(C)/C=C/CN1C(=O)CCC1=O
inactive: [1] > 10 µM | [2] > 100 µM | [3] > 100 µM | [4] > 100 µM | [5] > 100 µM | [7] > 100 µM | [8] > 100 µM | [10] > 100 µM | [12] > 100 µM | [13] > 100 µM | [14] > 100 µM | [15] > 100 µM | [16] > 100 µM | [17] > 100 µM

COc1c(Br)cc(CC(N)=O)c(O)c1Br
inactive: [1] > 100 µM | [2] > 100 µM | [3] > 100 µM | [4] > 100 µM | [5] > 100 µM | [6] > 100 µM | [7] > 100 µM | [8] > 100 µM | [9] > 100 µM | [10] > 100 µM | [11] > 100 µM | [12] > 100 µM | [13] > 100 µM | [14] > 100 µM | [15] > 100 µM | [16] > 100 µM | [17] > 100 µM

COc1nc(SC)nc2c1cnn2C1OC(C(O)CO)C(OC)C1O (stereo unspecified)
inactive: [1] 14 µM | [2] > 85.9 µM | [3] 52.7 µM | [4] 52.4 µM | [5] 99.3 µM | [6] > 100 µM | [7] > 100 µM | [8] > 100 µM | [9] > 100 µM | [11] > 83.2 µM | [12] > 100 µM | [13] > 65.6 µM | [14] > 85.9 µM | [15] > 92.7 µM | [16] > 100 µM

O=C(CSc1nnc(Cc2ccccc2)o1)Nc1ccc(Cl)cc1[N+](=O)[O-]
inactive: [1] 18.9 µM | [2] 20 µM | [3] 24.7 µM | [4] 22.3 µM | [6] 18.7 µM | [7] 13.1 µM | [8] 19.7 µM | [9] 21.2 µM | [10] 26.2 µM | [11] 19.2 µM | [12] 14.4 µM | [13] 14.2 µM | [14] 22.5 µM | [15] 21.5 µM | [16] 25.1 µM | [17] 17.1 µM
